Values quoted from earlier work in patent US5476933A, “Azepine synthesis via a diels-alder reaction” (priority 1994, dated 1995).

Tests used:
PCP receptor = conditions: Wong et al. 1986; cited from earlier work
rodents = conditions: literature; cited from earlier work

C[C@]12N[C@H](Cc3ccccc31)c1ccccc12 [MK-801]
Kd (PCP receptor): ~3 nM | PCP-like behavioral effects, in words (rodents): adverse PCP-like behavioral side effects
